Columns and labels:
[1] = biological target: T1, Alpha-1A adrenergic receptor (Rattus norvegicus, UniProt P43140); assay: DRUGMATRIX: Alpha-1A adrenergic receptor radioligand binding (ligand: prazosin); assay type: cell membranes, Wistar, Submaxillary gland, Membrane; conditions: Not Active = under 50% inhibition at 10 µM
T1 sequence (P43140 whole entry): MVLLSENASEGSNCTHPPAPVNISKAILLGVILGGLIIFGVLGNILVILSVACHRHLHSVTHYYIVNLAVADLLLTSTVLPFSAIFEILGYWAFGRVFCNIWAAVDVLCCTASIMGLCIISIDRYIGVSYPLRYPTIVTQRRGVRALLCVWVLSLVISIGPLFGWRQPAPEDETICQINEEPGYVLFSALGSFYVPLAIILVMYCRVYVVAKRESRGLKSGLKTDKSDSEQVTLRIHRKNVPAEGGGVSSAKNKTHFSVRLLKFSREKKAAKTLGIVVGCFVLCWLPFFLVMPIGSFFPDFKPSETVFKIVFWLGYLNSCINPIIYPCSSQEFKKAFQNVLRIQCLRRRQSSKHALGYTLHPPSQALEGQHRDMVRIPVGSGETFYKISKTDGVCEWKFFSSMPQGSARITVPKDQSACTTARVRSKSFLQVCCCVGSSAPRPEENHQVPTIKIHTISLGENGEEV

[2] = biological target: Sigma non-opioid intracellular receptor 1 (Homo sapiens, UniProt Q99720); assay: DRUGMATRIX: Sigma1 radioligand binding (ligand: [3H] Haloperidol); assay type: cell membranes, Jurkat, Membrane; conditions: Not Active = under 50% inhibition at 10 µM
[3] = DRUGMATRIX: GABAA, Chloride Channel, TBOB radioligand binding (ligand: [3H] TBOB); assay type: cell membranes, Rattus norvegicus, Wistar, Cerebral cortex, Membrane; conditions: Not Active = under 50% inhibition at 10 µM
[4] = biological target: Protein phosphatase 3 catalytic subunit alpha (Homo sapiens, UniProt Q08209); set-up: species or system Escherichia coli;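 further: inhibition of calcineurin (PP2B) enzyme activity, measured with DiFMUP as the substrate; in other assays of this panel Not Active means under 50% inhibition at 10 µM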
[5] = biological target: Tyrosine-protein kinase Lck (Homo sapiens, UniProt P06239); assay: DRUGMATRIX: Protein Tyrosine Kinase, LCK enzyme inhibition (substrate: Poly(Glu:Tyr)); assay type: cell-based, Insect cells; conditions: Not Active = under 50% inhibition at 10 µM
[6] = biological target: Cytochrome P450 2E1 (Homo sapiens, UniProt P05181); conditions: bti-tn-5b1-4; further: in other assays of this panel Not Active means under 50% inhibition at 10 µM
[7] = biological target: T2, Estrogen receptor (Homo sapiens, UniProt P03372); conditions: sf9; further: in other assays of this panel Not Active means under 50% inhibition at 10 µM
T2 sequence (P03372 whole entry): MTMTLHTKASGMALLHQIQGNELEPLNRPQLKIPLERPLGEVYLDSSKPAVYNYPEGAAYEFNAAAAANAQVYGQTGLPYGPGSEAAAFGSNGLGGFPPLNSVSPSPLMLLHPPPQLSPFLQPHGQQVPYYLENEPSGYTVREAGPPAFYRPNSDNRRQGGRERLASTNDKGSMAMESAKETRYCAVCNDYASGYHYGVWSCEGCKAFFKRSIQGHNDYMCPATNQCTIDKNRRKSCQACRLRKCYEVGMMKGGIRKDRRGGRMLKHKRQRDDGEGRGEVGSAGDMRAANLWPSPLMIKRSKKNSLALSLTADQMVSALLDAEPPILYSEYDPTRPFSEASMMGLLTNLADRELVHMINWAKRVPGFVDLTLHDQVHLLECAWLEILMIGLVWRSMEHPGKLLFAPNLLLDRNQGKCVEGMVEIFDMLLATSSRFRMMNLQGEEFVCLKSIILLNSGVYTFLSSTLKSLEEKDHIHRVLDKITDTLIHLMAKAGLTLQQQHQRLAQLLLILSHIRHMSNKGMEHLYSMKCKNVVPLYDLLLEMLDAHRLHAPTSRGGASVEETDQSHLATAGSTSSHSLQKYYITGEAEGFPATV

Sequence of Tyrosine-protein kinase Lck (P06239 whole entry): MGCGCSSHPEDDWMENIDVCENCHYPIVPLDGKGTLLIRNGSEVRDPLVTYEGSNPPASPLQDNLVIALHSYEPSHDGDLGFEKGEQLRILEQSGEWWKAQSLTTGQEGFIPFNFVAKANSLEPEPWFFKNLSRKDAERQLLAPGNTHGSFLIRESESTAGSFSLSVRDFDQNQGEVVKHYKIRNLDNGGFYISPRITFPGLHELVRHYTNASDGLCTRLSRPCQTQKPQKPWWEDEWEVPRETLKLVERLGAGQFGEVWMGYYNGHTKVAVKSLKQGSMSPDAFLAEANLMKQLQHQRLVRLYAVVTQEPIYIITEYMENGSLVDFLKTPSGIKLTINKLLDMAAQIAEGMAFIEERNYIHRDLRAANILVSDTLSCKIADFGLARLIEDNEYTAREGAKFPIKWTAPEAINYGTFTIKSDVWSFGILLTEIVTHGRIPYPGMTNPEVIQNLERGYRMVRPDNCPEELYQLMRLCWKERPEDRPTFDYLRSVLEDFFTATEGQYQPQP
Sequence of Sigma non-opioid intracellular receptor 1 (Q99720 whole entry): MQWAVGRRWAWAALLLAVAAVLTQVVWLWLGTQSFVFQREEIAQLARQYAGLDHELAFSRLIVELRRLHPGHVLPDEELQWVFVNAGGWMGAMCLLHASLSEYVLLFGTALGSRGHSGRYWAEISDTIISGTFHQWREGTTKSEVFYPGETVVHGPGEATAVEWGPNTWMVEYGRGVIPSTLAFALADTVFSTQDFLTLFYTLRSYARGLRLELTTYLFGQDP
Sequence of Cytochrome P450 2E1 (P05181 whole entry): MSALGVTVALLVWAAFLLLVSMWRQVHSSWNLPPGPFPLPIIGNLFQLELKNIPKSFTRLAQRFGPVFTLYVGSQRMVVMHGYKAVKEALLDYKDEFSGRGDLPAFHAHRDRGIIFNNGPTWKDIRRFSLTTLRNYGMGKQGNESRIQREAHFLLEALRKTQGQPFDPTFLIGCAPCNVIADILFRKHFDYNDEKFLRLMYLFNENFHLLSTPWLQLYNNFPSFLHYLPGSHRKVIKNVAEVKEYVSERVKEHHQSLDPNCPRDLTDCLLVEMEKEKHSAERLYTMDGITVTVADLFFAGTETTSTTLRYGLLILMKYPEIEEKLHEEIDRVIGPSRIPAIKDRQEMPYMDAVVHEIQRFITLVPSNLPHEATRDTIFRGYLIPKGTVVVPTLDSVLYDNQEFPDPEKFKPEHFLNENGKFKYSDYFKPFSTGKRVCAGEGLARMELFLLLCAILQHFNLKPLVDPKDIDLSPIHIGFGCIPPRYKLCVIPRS

Row | Molecule | IC50 ([1]; read-out: IC50) [nM] | Ki ([1]; read-out: Ki) [nM] | IC50 ([2]; jurkat) | IC50 [3] | Ki [3] | IC50 [4] | IC50 ([5]; insect cells) | IC50 [6] | Ki [6] | IC50 [7] | IC50 [1] | IC50 ([2]; read-out: IC50) [nM] | Ki ([2]; read-out: Ki) [nM] | IC50 ([5]; read-out: IC50) [nM] | Ki [1] | Ki ([2]; jurkat) | Ki [4] | Ki ([5]; insect cells) | Ki [7]
1 | CO[C@@H]1[C@@H](OC)[C@H](C)[C@@](O)(CC(=O)O)O[C@H]1[C@H](C)[C@H]1O[C@@]2(CC[C@@](C)([C@H]3CC[C@@](C)([C@@H]4O[C@@H]([C@H]5O[C@](C)(O)[C@H](C)C[C@@H]5C)C[C@@H]4O[C@@H]4C[C@H](OC)[C@@H](OC)[C@H](C)O4)O3)O2)C[C@H](O)[C@H]1C [MADURAMICIN ACID] | 3340 | 1350 | Not Active | Not Active | Not Active | Not Active | Not Active | Not Active | Not Active | Not Active | – | – | – | – | – | – | – | – | –
2 | Cc1cccc(C)c1OCC(C)N (stereo unspecified) [MEXILETINE] | – | – | Not Active | Not Active | Not Active | Not Active | Not Active | Not Active | Not Active | Not Active | Not Active | – | – | – | – | – | – | – | –
3 | Nc1cc(N2CCCCC2)nc(N)[n+]1[O-] [MINOXIDIL] | – | – | Not Active | Not Active | Not Active | Not Active | Not Active | Not Active | Not Active | Not Active | Not Active | – | – | – | – | – | – | – | –
4 | CO[C@H]1/C=C/O[C@@]2(C)Oc3c(C)c(O)c4c(O)c(c(/C=N/N5CCN(C6CCCC6)CC5)c(O)c4c3C2=O)NC(=O)/C(C)=C\C=C\[C@H](C)[C@H](O)[C@@H](C)[C@@H](O)[C@@H](C)[C@H](OC(C)=O)[C@@H]1C [RIFAPENTINE] | – | – | Not Active | Not Active | Not Active | Not Active | Not Active | Not Active | Not Active | Not Active | Not Active | – | – | – | – | – | – | – | –
5 | CCCCOc1cc(CC2CNC(=O)N2)ccc1OC (stereo unspecified) [RO-201724] | – | – | Not Active | Not Active | Not Active | Not Active | Not Active | Not Active | Not Active | Not Active | Not Active | – | – | – | – | – | – | – | –
6 | O=C(Oc1ccccc1C(=O)O)c1ccccc1O [SALSALATE] | – | – | Not Active | Not Active | Not Active | Not Active | Not Active | Not Active | Not Active | Not Active | Not Active | – | – | – | – | – | – | – | –
7 | O=C1C(CC[S+]([O-])c2ccccc2)C(=O)N(c2ccccc2)N1c1ccccc1 (stereo unspecified) [SULFINPYRAZONE] | – | – | Not Active | Not Active | Not Active | Not Active | Not Active | Not Active | Not Active | Not Active | Not Active | – | – | – | – | – | – | – | –
8 | NC(=O)N1C(=O)/C(=C(\O)c2cccs2)c2cc(Cl)ccc21 [TENIDAP] | – | – | Not Active | Not Active | Not Active | Not Active | Not Active | Not Active | Not Active | Not Active | Not Active | – | – | – | – | – | – | – | –
9 | CS(=O)(=O)c1ccc([C@@H](O)[C@@H](CO)NC(=O)C(Cl)Cl)cc1 [THIAMPHENICOL] | – | – | Not Active | Not Active | Not Active | Not Active | Not Active | Not Active | Not Active | Not Active | Not Active | – | – | – | – | – | – | – | –
10 | CCN(CC)CCNC(=O)c1cc(S(C)(=O)=O)ccc1OC [TIAPRIDE] | – | – | Not Active | Not Active | Not Active | Not Active | Not Active | Not Active | Not Active | Not Active | Not Active | – | – | – | – | – | – | – | –
11 | Clc1ccccc1CN1CCc2sccc2C1 [TICLOPIDINE] | – | – | – | Not Active | Not Active | Not Active | Not Active | Not Active | Not Active | Not Active | Not Active | 426 | 179 | – | – | – | – | – | –
12 | NC1CCN(c2nc3c(cc2F)c(=O)c(C(=O)O)cn3-c2ccc(F)cc2F)C1 (stereo unspecified) [TOSUFLOXACIN] | – | – | Not Active | Not Active | Not Active | Not Active | Not Active | Not Active | Not Active | Not Active | Not Active | – | – | – | – | – | – | – | –
13 | O=C(Nc1ccc(Br)cc1)c1cc(Br)cc(Br)c1O [TRIBROMSALAN] | – | – | Not Active | Not Active | Not Active | Not Active | – | Not Active | Not Active | Not Active | Not Active | – | – | 5020 | – | – | – | – | –
14 | CC(c1cc2ccccc2s1)N(O)C(N)=O (stereo unspecified) [ZILEUTON] | – | – | Not Active | Not Active | Not Active | Not Active | Not Active | Not Active | Not Active | Not Active | Not Active | – | – | – | – | – | – | – | –
15 | MANGANESE CHLORIDE ANHYDROUS | – | – | Not Active | Not Active | Not Active | Not Active | Not Active | Not Active | Not Active | Not Active | Not Active | – | – | – | Not Active | Not Active | Not Active | Not Active | Not Active
16 | SODIUM ORTHOVANAD | – | – | Not Active | Not Active | Not Active | Not Active | Not Active | Not Active | Not Active | Not Active | Not Active | – | – | – | Not Active | Not Active | Not Active | Not Active | Not Active

Reference: ChEMBL document CHEMBL1909046, “DrugMatrix in vitro pharmacology data”
